Data from ChEMBL document CHEMBL3991601, “The target landscape of clinical kinase drugs” (Science, 2017).
The source made the active and inactive calls.

How the values were obtained:
[1] = target: DnaJ homolog subfamily A member 1 (Homo sapiens, UniProt P31689)
[2] = target: T1, Very long-chain specific acyl-CoA dehydrogenase, mitochondrial (Homo sapiens, UniProt P49748)
T1 sequence (P49748 whole entry): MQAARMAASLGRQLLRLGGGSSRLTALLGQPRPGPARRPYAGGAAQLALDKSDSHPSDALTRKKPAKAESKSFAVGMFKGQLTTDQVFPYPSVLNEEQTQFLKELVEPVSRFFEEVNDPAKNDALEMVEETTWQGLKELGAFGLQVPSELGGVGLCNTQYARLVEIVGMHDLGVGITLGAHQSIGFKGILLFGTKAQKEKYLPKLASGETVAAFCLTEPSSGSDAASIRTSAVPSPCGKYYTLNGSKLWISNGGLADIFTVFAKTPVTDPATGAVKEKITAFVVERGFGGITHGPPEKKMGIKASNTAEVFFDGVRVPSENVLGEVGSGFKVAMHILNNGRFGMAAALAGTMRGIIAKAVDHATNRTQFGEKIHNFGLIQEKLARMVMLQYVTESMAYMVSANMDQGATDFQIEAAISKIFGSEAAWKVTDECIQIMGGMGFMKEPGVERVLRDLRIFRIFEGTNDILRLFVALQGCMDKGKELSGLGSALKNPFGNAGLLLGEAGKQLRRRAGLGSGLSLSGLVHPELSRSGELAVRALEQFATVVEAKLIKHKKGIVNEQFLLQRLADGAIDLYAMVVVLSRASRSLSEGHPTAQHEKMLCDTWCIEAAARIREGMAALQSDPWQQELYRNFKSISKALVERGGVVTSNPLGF

[3] = target: T2, Dynamin-like GTPase OPA1, mitochondrial (Homo sapiens, UniProt O60313)
T2 sequence (O60313 whole entry): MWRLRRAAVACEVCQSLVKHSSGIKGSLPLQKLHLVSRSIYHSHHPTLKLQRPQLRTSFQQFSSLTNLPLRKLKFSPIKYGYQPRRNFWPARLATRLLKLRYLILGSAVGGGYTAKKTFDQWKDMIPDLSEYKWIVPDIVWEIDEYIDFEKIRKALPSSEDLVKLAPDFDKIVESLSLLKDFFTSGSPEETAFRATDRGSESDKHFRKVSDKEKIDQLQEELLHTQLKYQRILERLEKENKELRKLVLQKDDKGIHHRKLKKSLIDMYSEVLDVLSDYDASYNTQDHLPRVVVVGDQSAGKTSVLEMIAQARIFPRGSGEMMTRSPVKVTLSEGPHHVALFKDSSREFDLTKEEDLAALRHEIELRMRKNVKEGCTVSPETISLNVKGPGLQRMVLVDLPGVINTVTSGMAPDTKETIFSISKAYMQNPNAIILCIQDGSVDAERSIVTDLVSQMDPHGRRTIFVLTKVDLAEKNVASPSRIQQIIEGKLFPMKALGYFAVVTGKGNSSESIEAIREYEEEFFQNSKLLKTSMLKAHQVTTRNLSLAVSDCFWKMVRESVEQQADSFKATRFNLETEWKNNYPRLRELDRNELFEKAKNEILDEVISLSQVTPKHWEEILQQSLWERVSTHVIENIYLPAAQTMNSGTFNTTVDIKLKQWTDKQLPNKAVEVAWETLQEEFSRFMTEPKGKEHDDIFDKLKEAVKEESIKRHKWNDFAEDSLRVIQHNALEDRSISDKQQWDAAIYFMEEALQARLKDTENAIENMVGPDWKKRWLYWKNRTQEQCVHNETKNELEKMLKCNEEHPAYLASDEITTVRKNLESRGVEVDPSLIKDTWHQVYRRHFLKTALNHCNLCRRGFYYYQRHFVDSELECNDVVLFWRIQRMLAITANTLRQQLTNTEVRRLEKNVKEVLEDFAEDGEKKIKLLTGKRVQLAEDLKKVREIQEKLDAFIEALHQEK

[4] = target: Structural maintenance of chromosomes protein 2 (Homo sapiens, UniProt O95347)
Chain of Structural maintenance of chromosomes protein 2 (O95347 whole entry): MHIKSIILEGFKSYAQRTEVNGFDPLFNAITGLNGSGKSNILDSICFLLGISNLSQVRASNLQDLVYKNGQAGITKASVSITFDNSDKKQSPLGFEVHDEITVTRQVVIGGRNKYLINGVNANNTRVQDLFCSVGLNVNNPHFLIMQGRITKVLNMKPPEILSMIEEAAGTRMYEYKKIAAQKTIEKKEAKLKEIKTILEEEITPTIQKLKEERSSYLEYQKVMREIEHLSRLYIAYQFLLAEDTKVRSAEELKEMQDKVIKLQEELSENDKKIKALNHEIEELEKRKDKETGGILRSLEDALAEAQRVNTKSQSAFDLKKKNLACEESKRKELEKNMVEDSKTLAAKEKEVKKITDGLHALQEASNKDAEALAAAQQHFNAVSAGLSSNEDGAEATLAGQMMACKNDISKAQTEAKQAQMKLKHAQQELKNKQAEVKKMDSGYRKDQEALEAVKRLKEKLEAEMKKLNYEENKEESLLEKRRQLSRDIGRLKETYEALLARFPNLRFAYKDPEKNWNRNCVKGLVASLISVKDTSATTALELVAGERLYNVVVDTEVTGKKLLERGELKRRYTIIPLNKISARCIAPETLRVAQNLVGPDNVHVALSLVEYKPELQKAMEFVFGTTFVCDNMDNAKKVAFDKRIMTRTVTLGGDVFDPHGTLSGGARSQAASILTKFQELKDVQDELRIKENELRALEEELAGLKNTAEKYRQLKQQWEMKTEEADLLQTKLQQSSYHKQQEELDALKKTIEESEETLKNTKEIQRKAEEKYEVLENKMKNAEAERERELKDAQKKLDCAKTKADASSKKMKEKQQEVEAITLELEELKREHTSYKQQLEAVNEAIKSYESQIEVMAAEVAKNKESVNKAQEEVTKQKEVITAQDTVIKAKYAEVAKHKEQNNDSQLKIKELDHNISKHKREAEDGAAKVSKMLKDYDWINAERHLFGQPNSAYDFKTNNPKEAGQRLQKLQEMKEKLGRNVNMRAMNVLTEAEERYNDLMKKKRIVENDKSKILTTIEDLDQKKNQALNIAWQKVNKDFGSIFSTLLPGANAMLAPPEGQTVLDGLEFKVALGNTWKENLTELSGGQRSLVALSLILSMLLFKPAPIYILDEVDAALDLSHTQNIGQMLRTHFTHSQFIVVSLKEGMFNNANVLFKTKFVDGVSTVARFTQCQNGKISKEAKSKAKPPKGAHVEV

[5] = target: T3, Glycogen phosphorylase, brain form (Homo sapiens, UniProt P11216)
T3 sequence (P11216 whole entry): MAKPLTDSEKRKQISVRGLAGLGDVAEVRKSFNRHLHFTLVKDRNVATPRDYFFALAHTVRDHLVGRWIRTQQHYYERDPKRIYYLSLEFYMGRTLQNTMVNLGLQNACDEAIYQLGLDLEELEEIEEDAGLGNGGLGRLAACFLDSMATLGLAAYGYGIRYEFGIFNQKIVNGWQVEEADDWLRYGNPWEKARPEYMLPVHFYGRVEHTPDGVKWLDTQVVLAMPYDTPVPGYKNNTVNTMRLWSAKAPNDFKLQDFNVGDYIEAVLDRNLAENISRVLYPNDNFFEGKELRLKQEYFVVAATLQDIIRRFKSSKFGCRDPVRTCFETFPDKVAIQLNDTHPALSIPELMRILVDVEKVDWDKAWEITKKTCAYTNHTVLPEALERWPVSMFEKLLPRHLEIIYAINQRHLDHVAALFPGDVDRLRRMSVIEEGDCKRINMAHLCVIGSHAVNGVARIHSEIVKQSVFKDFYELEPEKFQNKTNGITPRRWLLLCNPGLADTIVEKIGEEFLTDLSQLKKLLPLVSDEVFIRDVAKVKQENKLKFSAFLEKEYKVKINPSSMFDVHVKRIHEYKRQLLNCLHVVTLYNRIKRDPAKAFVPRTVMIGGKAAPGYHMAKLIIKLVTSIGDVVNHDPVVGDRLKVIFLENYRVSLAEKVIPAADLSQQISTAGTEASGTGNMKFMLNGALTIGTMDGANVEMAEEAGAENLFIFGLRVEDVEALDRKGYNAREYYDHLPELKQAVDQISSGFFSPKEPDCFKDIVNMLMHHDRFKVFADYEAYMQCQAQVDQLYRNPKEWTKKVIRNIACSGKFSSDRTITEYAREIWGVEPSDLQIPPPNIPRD

[6] = target: Ribosomal protein S6 kinase alpha-1 (Homo sapiens, UniProt Q15418)
Chain of Ribosomal protein S6 kinase alpha-1 (Q15418 whole entry): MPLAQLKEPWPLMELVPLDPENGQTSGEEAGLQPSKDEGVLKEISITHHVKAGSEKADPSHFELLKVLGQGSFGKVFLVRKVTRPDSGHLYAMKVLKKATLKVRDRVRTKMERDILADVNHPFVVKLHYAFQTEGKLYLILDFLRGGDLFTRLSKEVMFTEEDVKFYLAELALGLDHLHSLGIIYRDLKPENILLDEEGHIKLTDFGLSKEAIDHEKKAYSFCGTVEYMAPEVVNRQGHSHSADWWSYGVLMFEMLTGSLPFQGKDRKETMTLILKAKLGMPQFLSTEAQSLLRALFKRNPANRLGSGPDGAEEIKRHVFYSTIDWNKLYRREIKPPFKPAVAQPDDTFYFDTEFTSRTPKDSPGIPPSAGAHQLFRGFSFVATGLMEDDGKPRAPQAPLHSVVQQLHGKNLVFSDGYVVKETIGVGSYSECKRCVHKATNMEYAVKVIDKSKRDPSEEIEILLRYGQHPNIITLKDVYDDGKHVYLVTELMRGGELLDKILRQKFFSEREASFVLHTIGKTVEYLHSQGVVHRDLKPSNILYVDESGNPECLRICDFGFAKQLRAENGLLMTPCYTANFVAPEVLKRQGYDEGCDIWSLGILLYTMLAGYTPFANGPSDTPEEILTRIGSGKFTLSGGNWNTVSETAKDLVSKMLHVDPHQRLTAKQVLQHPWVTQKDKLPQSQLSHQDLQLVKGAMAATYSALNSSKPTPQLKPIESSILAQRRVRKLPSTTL

[7] = target: Inosine-5'-monophosphate dehydrogenase 2 (Homo sapiens, UniProt P12268)
[8] = target: Mitogen-activated protein kinase 7 (Homo sapiens, UniProt Q13164)
Chain of Mitogen-activated protein kinase 7 (Q13164 whole entry): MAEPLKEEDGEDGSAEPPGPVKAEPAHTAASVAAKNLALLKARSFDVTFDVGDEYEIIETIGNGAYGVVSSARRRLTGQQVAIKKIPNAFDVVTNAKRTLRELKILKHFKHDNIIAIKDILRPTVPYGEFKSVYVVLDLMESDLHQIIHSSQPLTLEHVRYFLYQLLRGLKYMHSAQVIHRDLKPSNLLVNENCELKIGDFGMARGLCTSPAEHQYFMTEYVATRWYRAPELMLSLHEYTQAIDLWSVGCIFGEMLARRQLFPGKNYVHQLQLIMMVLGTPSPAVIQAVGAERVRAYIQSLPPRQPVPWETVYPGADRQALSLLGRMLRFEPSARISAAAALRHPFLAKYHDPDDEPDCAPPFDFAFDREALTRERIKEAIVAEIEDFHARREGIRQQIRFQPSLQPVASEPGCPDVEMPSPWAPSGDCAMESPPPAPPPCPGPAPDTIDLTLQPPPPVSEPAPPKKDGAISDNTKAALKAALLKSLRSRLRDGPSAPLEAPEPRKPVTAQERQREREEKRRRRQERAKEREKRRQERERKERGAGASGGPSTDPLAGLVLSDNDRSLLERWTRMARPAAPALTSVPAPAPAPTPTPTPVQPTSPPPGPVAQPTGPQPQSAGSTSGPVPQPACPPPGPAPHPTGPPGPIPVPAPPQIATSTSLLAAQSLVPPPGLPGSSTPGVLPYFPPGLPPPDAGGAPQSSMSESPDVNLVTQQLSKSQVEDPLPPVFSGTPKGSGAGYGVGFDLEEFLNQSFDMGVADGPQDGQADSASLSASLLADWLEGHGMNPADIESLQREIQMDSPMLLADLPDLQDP

[9] = target: Cyclin-dependent kinase 2 (Homo sapiens, UniProt P24941)
[10] = target: cAMP-dependent protein kinase type II-alpha regulatory subunit (Homo sapiens, UniProt P13861)
Chain of cAMP-dependent protein kinase type II-alpha regulatory subunit (P13861 whole entry): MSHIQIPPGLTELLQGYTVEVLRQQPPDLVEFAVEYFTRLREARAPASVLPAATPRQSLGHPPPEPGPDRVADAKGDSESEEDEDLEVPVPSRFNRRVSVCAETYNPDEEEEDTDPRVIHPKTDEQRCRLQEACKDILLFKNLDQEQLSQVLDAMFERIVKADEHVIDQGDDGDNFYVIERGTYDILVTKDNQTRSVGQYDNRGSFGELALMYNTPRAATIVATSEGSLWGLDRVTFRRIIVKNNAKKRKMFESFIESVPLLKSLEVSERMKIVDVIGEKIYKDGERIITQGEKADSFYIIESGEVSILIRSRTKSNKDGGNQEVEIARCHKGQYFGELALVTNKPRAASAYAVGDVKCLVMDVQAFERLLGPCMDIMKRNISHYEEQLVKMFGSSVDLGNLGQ
Further: in the data inactive means no Kd found up to 30 µM.

Chain of DnaJ homolog subfamily A member 1 (P31689 whole entry): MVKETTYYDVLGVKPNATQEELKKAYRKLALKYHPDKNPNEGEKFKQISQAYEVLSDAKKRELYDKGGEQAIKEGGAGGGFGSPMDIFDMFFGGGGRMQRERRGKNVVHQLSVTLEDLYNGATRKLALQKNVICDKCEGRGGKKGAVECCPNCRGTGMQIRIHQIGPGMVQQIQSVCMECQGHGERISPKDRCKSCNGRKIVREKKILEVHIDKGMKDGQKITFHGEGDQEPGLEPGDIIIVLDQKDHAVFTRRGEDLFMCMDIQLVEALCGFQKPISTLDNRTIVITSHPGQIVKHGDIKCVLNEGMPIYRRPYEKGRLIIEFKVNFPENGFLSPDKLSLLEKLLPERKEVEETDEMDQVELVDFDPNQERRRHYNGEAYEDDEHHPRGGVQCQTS

SMILES: Cn1c(=O)c(F)c(Nc2ccc(I)cc2F)c2c(=O)n(C[C@@H](O)CO)cnc21 [TAK-733]
- Kd [1]: > 30 µM (inactive)
- Kd [2]: > 30 µM (inactive)
- Kd [3]: > 30 µM (inactive)
- Kd [4]: > 30 µM (inactive)
- Kd [5]: > 30 µM (inactive)
- Kd [6]: > 30 µM (inactive)
- Kd [7]: > 30 µM (inactive)
- Kd [8]: > 30 µM (inactive)
- Kd [9]: > 30 µM (inactive)
- Kd [10]: > 30 µM (inactive)

SMILES: COc1cc2ncnc3c2cc1OCCCCCN(C)Cc1ccc(Br)cc1N3 [JNJ-26483327]
- Kd [1]: > 30 µM (inactive)
- Kd [2]: > 30 µM (inactive)
- Kd [3]: > 30 µM (inactive)
- Kd [4]: > 30 µM (inactive)
- Kd [5]: > 30 µM (inactive)
- Kd [6]: > 30 µM (inactive)
- Kd [7]: > 30 µM (inactive)
- Kd [8]: > 30 µM (inactive)
- Kd [9]: > 30 µM (inactive)
- Kd [10]: > 30 µM (inactive)

SMILES: COc1cc2ncnc(Nc3ccc(F)c(Cl)c3)c2cc1NC(=O)/C=C/CN1CCCCC1 [DACOMITINIB ANHYDROUS]
- Kd [1]: > 30 µM (inactive)
- Kd [2]: > 30 µM (inactive)
- Kd [3]: > 30 µM (inactive)
- Kd [4]: > 30 µM (inactive)
- Kd [5]: > 30 µM (inactive)
- Kd [6]: > 30 µM (inactive)
- Kd [7]: > 30 µM (inactive)
- Kd [8]: > 30 µM (inactive)
- Kd [9]: > 30 µM (inactive)
- Kd [10]: > 30 µM (inactive)

SMILES: C#Cc1cccc(Nc2ncnc3cc4c(cc23)OCCOCCOCCO4)c1 [ICOTINIB]
- Kd [1]: > 30 µM (inactive)
- Kd [2]: > 30 µM (inactive)
- Kd [3]: > 30 µM (inactive)
- Kd [4]: > 30 µM (inactive)
- Kd [5]: > 30 µM (inactive)
- Kd [6]: > 30 µM (inactive)
- Kd [7]: > 30 µM (inactive)
- Kd [8]: > 30 µM (inactive)
- Kd [9]: > 30 µM (inactive)
- Kd [10]: > 30 µM (inactive)

SMILES: Cc1cc(C(=O)Nc2cc(Oc3ccc4nc(NC(=O)C5CC5)cn4n3)ccc2C)n(C)n1 [TAK-593]
- Kd [1]: > 30 µM (inactive)
- Kd [2]: > 30 µM (inactive)
- Kd [3]: > 30 µM (inactive)
- Kd [4]: > 30 µM (inactive)
- Kd [5]: > 30 µM (inactive)
- Kd [6]: > 30 µM (inactive)
- Kd [7]: > 30 µM (inactive)
- Kd [8]: > 30 µM (inactive)
- Kd [9]: > 30 µM (inactive)
- Kd [10]: > 30 µM (inactive)

SMILES: O[C@H]1CC[C@H](Nc2ncc3nc(Nc4c(F)cc(F)cc4F)n([C@H]4CCOC4)c3n2)CC1 [TANZISERTIB]
- Kd [1]: > 30 µM (inactive)
- Kd [2]: > 30 µM (inactive)
- Kd [3]: > 30 µM (inactive)
- Kd [4]: > 30 µM (inactive)
- Kd [5]: > 30 µM (inactive)
- Kd [6]: > 30 µM (inactive)
- Kd [8]: > 30 µM (inactive)
- Kd [9]: > 30 µM (inactive)
- Kd [10]: > 30 µM (inactive)

SMILES: CN1CCN(c2nc(C3=C(c4c[nH]c5ccccc45)C(=O)NC3=O)c3ccccc3n2)CC1 [SOTRASTAURIN]
- Kd [1]: > 30 µM (inactive)
- Kd [2]: > 30 µM (inactive)
- Kd [3]: > 30 µM (inactive)
- Kd [4]: > 30 µM (inactive)
- Kd [5]: > 30 µM (inactive)
- Kd [6]: > 30 µM (inactive)
- Kd [8]: > 30 µM (inactive)
- Kd [9]: > 30 µM (inactive)
- Kd [10]: > 30 µM (inactive)

SMILES: CCOc1ccn(-c2ccc(F)cc2)c(=O)c1C(=O)Nc1ccc(Oc2ccnc(N)c2Cl)c(F)c1 [BMS-777607]
- Kd [1]: > 30 µM (inactive)
- Kd [2]: > 30 µM (inactive)
- Kd [3]: > 30 µM (inactive)
- Kd [4]: > 30 µM (inactive)
- Kd [6]: > 30 µM (inactive)
- Kd [7]: > 30 µM (inactive)
- Kd [8]: > 30 µM (inactive)
- Kd [9]: > 30 µM (inactive)
- Kd [10]: > 30 µM (inactive)

SMILES: CNC(=O)c1ccc(Nc2ncc(C(F)(F)F)c(NCc3nccnc3N(C)S(C)(=O)=O)n2)cc1 [DEFACTINIB]
- Kd [1]: > 30 µM (inactive)
- Kd [2]: > 30 µM (inactive)
- Kd [3]: > 30 µM (inactive)
- Kd [4]: > 30 µM (inactive)
- Kd [5]: > 30 µM (inactive)
- Kd [6]: > 30 µM (inactive)
- Kd [8]: > 30 µM (inactive)
- Kd [9]: 1.66 µM
- Kd [10]: > 30 µM (inactive)

SMILES: CC[C@@](C)(Nc1ccnc(-c2c[nH]c3ncccc23)n1)C(=O)NCC(F)(F)F [DECERNOTINIB]
- Kd [1]: > 30 µM (inactive)
- Kd [2]: > 30 µM (inactive)
- Kd [3]: > 30 µM (inactive)
- Kd [4]: > 30 µM (inactive)
- Kd [5]: > 30 µM (inactive)
- Kd [6]: > 30 µM (inactive)
- Kd [7]: > 30 µM (inactive)
- Kd [8]: > 30 µM (inactive)
- Kd [9]: > 30 µM (inactive)

SMILES: C=CC(=O)Nc1cccc(Nc2nc(Nc3ccc(N4CCN(C(C)=O)CC4)cc3OC)ncc2C(F)(F)F)c1 [ROCILETINIB]
- Kd [1]: > 30 µM (inactive)
- Kd [2]: > 30 µM (inactive)
- Kd [3]: > 30 µM (inactive)
- Kd [4]: > 30 µM (inactive)
- Kd [5]: > 30 µM (inactive)
- Kd [6]: > 30 µM (inactive)
- Kd [7]: > 30 µM (inactive)
- Kd [8]: > 30 µM (inactive)
- Kd [9]: > 30 µM (inactive)

SMILES: Cc1cc(-c2cc(OC(=O)c3ccccc3)ccc2Cl)cc2nnc(Nc3ccc(OCCN4CCCC4)cc3)nc12 [TG100-801]
- Kd [1]: > 30 µM (inactive)
- Kd [2]: > 30 µM (inactive)
- Kd [3]: > 30 µM (inactive)
- Kd [4]: > 30 µM (inactive)
- Kd [5]: > 30 µM (inactive)
- Kd [6]: > 30 µM (inactive)
- Kd [8]: > 30 µM (inactive)
- Kd [9]: > 30 µM (inactive)
- Kd [10]: > 30 µM (inactive)

SMILES: C=CCN(/C=C1/C(=O)O[C@H](COC)[C@@]2(C)C1=C(O)C(=O)C1=C2[C@H](OC(C)=O)C[C@]2(C)C(=O)CC[C@@H]12)CC=C [SONOLISIB]
- Kd [1]: > 30 µM (inactive)
- Kd [2]: > 30 µM (inactive)
- Kd [3]: > 30 µM (inactive)
- Kd [4]: > 30 µM (inactive)
- Kd [5]: > 30 µM (inactive)
- Kd [6]: > 30 µM (inactive)
- Kd [8]: > 30 µM (inactive)
- Kd [9]: > 30 µM (inactive)
- Kd [10]: > 30 µM (inactive)

SMILES: Cc1c(NC(=O)OC[C@@H]2COCCN2)cn2ncnc(Nc3ccc4c(cnn4Cc4cccc(F)c4)c3)c12 [AC-480]
- Kd [1]: > 30 µM (inactive)
- Kd [2]: > 30 µM (inactive)
- Kd [3]: > 30 µM (inactive)
- Kd [4]: > 30 µM (inactive)
- Kd [5]: > 30 µM (inactive)
- Kd [6]: > 30 µM (inactive)
- Kd [8]: > 30 µM (inactive)
- Kd [9]: > 30 µM (inactive)
- Kd [10]: > 30 µM (inactive)
